According to patent US11952382B1, “2-benzo-[3,4-b]quinolino-[b,g]indeno[1,2:3,4]fluoreno-[1,2-d]oxonine-24-flouro-5,11,16,21-tetraone as an antimicrobial compound” (KING FAISAL UNIVERSITY, priority 2023, dated 2024):

How the values were obtained:
Type in all cases: cell-based
Details in all cases: after 10, 20, 40 and 60 minutes at all dilutions 1:100, 1:200, 1:400, 1:800
Pseudomonas aeruginosa = assay: Antimicrobial screening by agar dilution, Pseudomonas aeruginosa
Protocol: (§1) The antibacterial properties of the synthesized compound 2-benzo-[3,4-b]quinolino-[b,g]indeno[1′,2′:3,4]fluoreno-[1,2-d]oxonine-24-flouro-5,11,16,21-tetraone were studied by the method of agar dilution. Test solutions of each compound was prepared in concentration of 1% using dimethylformamide as a solvent then they are diluted in physiological solution to obtain the final experimental dilutions 1:100, 1:200, 1:400, 1:800. The effect of these substances are compared with furacillin in a controllable study. The testing microbes used were gram positive bacteria Staphylococcus aureus, gram negative bacteria Pseudomonas aeruginosa and Escherichia coli and Candida albicans fungus. The experiments used for this survey were meat-pentonlu agar (EPA) for cultivation of bacteria and Saburo environment for the fungus. Each experiment used 1 mL of test solution on each plate […]. Two drops of emulsified with microbes feel were added. All experimental samples were taken from the agar after 10, 20, 40, 60 minutes in the environment on the basis of Patrk planted. The bacteria were cultivated at a temperature of 37° C. for 1 day and the mushroom was kept in a thermostat for 2 hours at a temperature of 28° C. Then results were checked.

Escherichia coli = assay: Antimicrobial screening by agar dilution, Escherichia coli
Protocol: as §1

Staphylococcus aureus = assay: Antimicrobial screening by agar dilution, Staphylococcus aureus
Protocol: as §1

Candida albicans = assay: Antimicrobial (antifungal) screening by agar dilution, Candida albicans
Protocol: as §1

Measured: inhibition activity

O=C1Oc2nc3ccc(F)cc3cc2-c2c(c3c4ccccc4c(=O)c3c3c2c(=O)c2ccccc23)C(=O)c2ccccc21 [2-benzo-[3,4-b]quinolino-[b,g]indeno[1′,2′:3,4]fluoreno-[1,2-d]oxonine-24-flouro-5,11,16,21-tetraone]
highest inhibition activity: all assays above
